One experiment has as its target T1, human STING WT (R232) (Homo sapiens, UniProt Q86WV6, H232R).
T1 construct: purchased Cisbio 64BDSTGPEG
Description: Human STING HTRF binding assay (competitive, Cisbio 64BDSTGPEG). Put shortly: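 Competitive HTRF: 6His-tagged human STING WT R232 binding domain (residues 138-379) with anti-6His Cryptate antibody and d2-labeled STING ligand, 180 min at room temperature, 1% DMSO, 8 concentrations from 10 μM or 1 μM top in ~1:5 steps. HTRF ratios were calibrated to a cGAMP standard curve and IC50 obtained by 4-parameter logistic fit.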
(In TR-FRET formats the signal depends on donor and acceptor labels being close together.)

Experiment [1] deals with STING inhibition in human whole blood (IFNα2α production). Description: Human whole blood assay (HWBA): cGAMP-stimulated IFNα2α production. It counts as cell-based. To be noted: Homo sapiens. Put shortly: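 Na-citrate human whole blood from ≥3 healthy donors, preincubated 60 min at room temperature with compound (8 concentrations, top 10 μM, ~1:5 steps, 0.1% DMSO), then stimulated with cGAMP and incubated 22 h at 37 °C. Plasma IFNα2α measured by MSD immunoassay; % control versus stimulated/unstimulated wells, IC50 by 4-parameter logistic fit.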

T1 sequence (Q86WV6 138-379 H232R): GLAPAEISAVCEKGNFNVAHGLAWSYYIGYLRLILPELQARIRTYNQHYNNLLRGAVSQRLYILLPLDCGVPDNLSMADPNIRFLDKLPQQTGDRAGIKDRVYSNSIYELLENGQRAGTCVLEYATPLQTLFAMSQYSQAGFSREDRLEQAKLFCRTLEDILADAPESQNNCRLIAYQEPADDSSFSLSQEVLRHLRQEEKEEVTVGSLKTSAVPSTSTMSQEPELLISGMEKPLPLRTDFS

For orientation: IC50 means the concentration at which inhibition is half-maximal. The low end stands for greater potency in that assay, the high end for weaker potency in that assay. Take `Cc1ccc([C@@H](O)Cn2cc3c(-c4nc(-c5cc6cn(C)nc6nc5C(C)C)n(C)c4C4CC4)cccc3n2)cc1` [Example 25, (1R)-2-(4-{5-cyclopropyl-1-methyl-2-[2-methyl-6-(propan-2-yl)-2H-pyrazolo[3,4-b]pyridin-5-yl]-1H-imidazol-4-yl}-2H-indazol-2-yl)-1-(4-methylphenyl)ethan-1-ol]: the IC50 turned out to be 18.1 nM at human STING WT (R232) and 97 nM in experiment [1].
The matching figures for `Cc1nc2nn(CCCC#N)cc2cc1-n1nc(-c2cccc3nn(C[C@H](O)c4ccccc4)cc23)c(C(C)C)c1C` [Example 2, 4-[5-(3-{2-[(2R)-2-hydroxy-2-phenylethyl]-2H-indazol-4-yl}-5-methyl-4-(propan-2-yl)-1H-pyrazol-1-yl)-6-methyl-2H-pyrazolo[3,4-b]pyridin-2-yl]butanenitrile]: 15.8 nM and 54 nM.
For `Cn1c(-c2cc3cn(CCN4CCOCC4)nc3nc2C2CC2)nc(-c2cccc3nn(C[C@H](O)c4ccccc4)cc23)c1C1CC1` [Example 10, (1R)-2-[4-(5-cyclopropyl-2-{6-cyclopropyl-2-[2-(morpholin-4-yl)ethyl]-2H-pyrazolo[3,4-b]pyridin-5-yl}-1-methyl-1H-imidazol-4-yl)-2H-indazol-2-yl]-1-phenylethan-1-ol], the half-maximal inhibitory concentration (IC50) is 9.3 nM on human STING WT (R232) and 69 nM in experiment [1].
For `Cn1cc2cc(-c3nc(-c4cccc5nn(C[C@H](O)c6ccc(OCCC(C)(C)O)cc6)cc45)c(C4CC4)n3C)c(C3CC3)nc2n1` [Example 41, 4-{4-[(1R)-2-[4-(5-cyclopropyl-2-{6-cyclopropyl-2-methyl-2H-pyrazolo[3,4-b]pyridin-5-yl}-1-methyl-1H-imidazol-4-yl)-2H-indazol-2-yl]-1-hydroxyethyl]phenoxy}-2-methylbutan-2-ol], in that order: 6.4 nM and 140 nM.
For `Cn1cc2cc(-c3nc(-c4cccc5nn(C[C@H](O)c6ccc(OC7COC7)cc6)cc45)c(C4CC4)n3C)c(C3CC3)nc2n1` [Example 69, (1R)-2-[4-(5-cyclopropyl-2-{6-cyclopropyl-2-methyl-2H-pyrazolo[3,4-b]pyridin-5-yl}-1-methyl-1H-imidazol-4-yl)-2H-indazol-2-yl]-1-[4-(oxetan-3-yloxy)phenyl]ethan-1-ol], in that order: 7.5 nM and 360 nM.
For `CCCn1cc2cc(-c3nc(-c4cccc5nn(CC(F)(F)c6ccccc6)cc45)c(C4CC4)n3C)c(C3CC3)nc2n1` [Example 48, 4-(5-cyclopropyl-2-{6-cyclopropyl-2-propyl-2H-pyrazolo[3,4-b]pyridin-5-yl}-1-methyl-1H-imidazol-4-yl)-2-(2,2-difluoro-2-phenylethyl)-2H-indazole], in that order: 22.7 nM and 150 nM.
Take `Cc1nc2nn(CCCN3CCOCC3)cc2cc1-n1nc(-c2cccc3nn(C[C@H](F)c4ccccc4)cc23)c(C(C)C)c1C` [Example 49, 2-[(2R)-2-fluoro-2-phenylethyl]-4-(5-methyl-1-{6-methyl-2-[3-(morpholin-4-yl)propyl]-2H-pyrazolo[3,4-b]pyridin-5-yl}-4-(propan-2-yl)-1H-pyrazol-3-yl)-2H-indazole]: the IC50 came out at 22.2 nM at human STING WT (R232) and 160 nM in experiment [1].
The matching figures for `Cc1nc2nn(C)cc2cc1-n1nc(-c2cccc3nn(C[C@H](O)c4ccccc4)cc23)c(C(C)C)c1C` [Example 102, (1R)-2-[4-(1-{2,6-Dimethyl-2H-pyrazolo[3,4-b]pyridin-5-yl}-5-methyl-4-(propan-2-yl)-1H-pyrazol-3-yl)-2H-indazol-2-yl]-1-phenylethan-1-ol]: 3.6 nM and 40 nM.
On to `Cc1nc2nn(CC3CC3)cc2cc1-n1nc(-c2cccc3nn(C[C@H](O)c4ccccc4)cc23)c(C(C)C)c1C` [Example 56, (1R)-2-(4-{1-[2-(cyclopropylmethyl)-6-methyl-2H-pyrazolo[3,4-b]pyridin-5-yl]-5-methyl-4-(propan-2-yl)-1H-pyrazol-3-yl}-2H-indazol-2-yl)-1-phenylethan-1-ol], for which the IC50 came to 18.1 nM at human STING WT (R232) and 210 nM in experiment [1].
For `Cc1nc2nn(C)cc2cc1-n1nc(-c2cccc3nn(C[C@H](O)c4ccc(F)cc4)cc23)c(C(C)C)c1C` [Example 46, (1R)-2-[4-(1-{2,6-dimethyl-2H-pyrazolo[3,4-b]pyridin-5-yl}-5-methyl-4-(propan-2-yl)-1H-pyrazol-3-yl)-2H-indazol-2-yl]-1-(4-fluorophenyl)ethan-1-ol], in that order: 15.2 nM and 140 nM.
The matching figures for `Cc1nc2nn(C)cc2cc1-n1nc(-c2cccc3nn(CCc4ccc(OCCN(C)C)cc4)cc23)c(C(C)C)c1C` [Example 65, [2-(4-{2-[4-(1-{2,6-dimethyl-2H-pyrazolo[3,4-b]pyridin-5-yl}-5-methyl-4-(propan-2-yl)-1H-pyrazol-3-yl)-2H-indazol-2-yl]ethyl}phenoxy)ethyl]dimethylamine]: 16.9 nM and 320 nM.

For the origin of these results see US20260265244A1, “HETEROCYCLIC COMPOUNDS AS STING ANTAGONISTS” (Boehringer Ingelheim International GmbH, priority 2022, published 2026).
